# How the values were obtained:
# [1] = Search for florigen capable of high level expression (soluble fractions); details: recombinant expression of mutated Hd3a
# Description: FIG. 5 is a photograph showing mHd3a-1 separated and detected by SDS-PAGE through a conventional method.
# [2] = test system: Rice radicles, cultured rice cells (rice protoplasts), tobacco leaves, and Arabidopsis leaves; test: Quantitative efficiency of introduction of GFP by eight cell-penetrating peptides in four tissues; assay type: cell-based; details: rank among eight cell-penetrating peptides over four tissues (32 treatment groups)
# Description: Eight kinds of cell-penetrating peptides shown in Table 1 above and GFP were separately mixed in PBS (137 mM NaCl, 2.7 mM KCl, 10 mM Na2HPO4, 1.76 mM KH2PO4) (pH 7.4) so as to achieve a final concentration of 50 μM, and rice radicles were immersed in the mixtures. The eight kinds of cell-penetrating peptides are typical peptides selected from arginine-rich peptides, amphiphilic peptides, and peptides each having an RXLR sequence, and were prepared by chemical synthesis.
# The immersion treatment was carried out for 16 hours at room temperature, followed by low-temperature treatment at 4° C. for 4 hours. The samples were washed until fluorescence was not observed in a negative control group treated with GFP alone, and cells were counted under a fluorescence stereomicroscope to calculate ratios of fluorescent cells.
# (2) The efficiency of introduction of GFP by the eight kinds of cell-penetrating peptides was examined quantitatively in the same manner as in (1) above. Rice radicles (FIG. 2a), cultured rice cells (rice protoplasts) (FIG. 2b), tobacco leaves (FIG. 2c), and Arabidopsis leaves (FIG. 2d) were used as tissues to be examined. A total of 32 treatment groups were evaluated.
# Arabidopsis = test: Flowering-promoting effect in Arabidopsis plant body after direct introduction of florigen; assay type: in vivo
# Description: A mixed solution prepared by mixing the florigen mHd3a-1 and the cell-penetrating peptide R9 in ten-times diluted PBS in the same manner as in Example 3 was used for treatment of seedling of Arabidopsis at the time of cotyledon expansion about three days after seeding. It should be noted that the shoot apices in seedling of Arabidopsis was exposed at the time of cotyledon expansion. The treatment was carried out at room temperature for 2 days. After that, the mixed solution was washed, and the plants were cultivated on the MS medium under a short-day condition (day length: 10 hours) for from 30 to 40 days to examine the timing of the flowering. The examination condition of the start of the flowering was defined as the start of bolting or a state where differentiation of flower buds was visually observed, and whether the flowering was early or late was evaluated based on the number of rosette leaves at the time when the state described above was achieved. In the case of Arabidopsis, rosette leaves are usually extracted, and the extraction of the rosette leaves is stopped when the flowering is started. When the flowering is started in the early stage, the number of the leaves is small because only a small number of the rosette leaves can be extracted, while when it takes a long time before the flowering is started, the number of the leaves is large because many rosette leaves can be extracted.
# FIG. 12 and FIG. 13 show the results. FIG. 12 are photographs taken on day 14 and day 21, when the cultivation start date under the short-day condition is defined as day 0. The enlarged view is one obtained by enlarging the area enclosed by a dashed line in the photograph of a flower bud of an individual treated with the mixed solution of mHd3a-1 and R9, which was taken on day 21. In addition, the numbers in the graph of FIG. 13 represent numbers of individuals that achieved the flowering at each number of leaves. […]
# [3] = test system: rice root epidermal cells; test: Effect of molar ratio of cell-penetrating peptide to protein on efficiency of introduction of GFP; assay type: cell-based
# Description: (3) The effect of the molar ratios of the cell-penetrating peptides to the protein on the efficiency of introduction of the protein was examined. The molar ratios of the cell-penetrating peptides (Avr1b and R9) to the protein were changed to 0.01, 0.1, 1, and 10, and the efficiency of introduction of GFP into rice root epidermal cells was evaluated.
# [4] = test system: flower-bud formation marker gene OsMADS15; test: Florigen function in transient expression system for protoplasts (with OsFD1), RT-PCR; assay type: cell-based; details: transiently expressed with OsFD1 in protoplasts; compared among five mutated Hd3a's
# Description: (2) The florigen functions were examined for mutated Hd3a partial peptides of mHd3a-2F (full-length, having C43L, C109S, and C166S amino acid substitutions) and m-Hd3a-3F (full-length, having K31A, Y136A, and W140A amino acid substitutions) in addition to the mutated Hd3a's examined in (1) above, i.e., mHd3a-1, mHd3a-2T, and mHd3a-3T. The as say system used is a transient expression system for protoplasts. When the mutated Hd3a and a transcription factor OsFD1 are transiently expressed in protoplasts in this system, a flower-bud formation marker gene OsMADS15 is transcriptionally activated if the Hd3a is functional. The transient expression system for protoplasts was constructed according to the method described in Non Patent Literature 2. In addition, the expression of the OsMADS15 gene was examined by RT-PCR method according to the method described in Non Patent Literature 2.
# rice shoot apical tissue = test: Introduction of FITC-labeled florigen into cell of rice shoot apical tissue; assay type: cell-based; details: florigen 50 μM, R9 500 μM in PBS (pH 7.4)
# Description: (§1) The mHd3a-1 prepared by high level expression in Example 2 was labeled with a fluorochrome FITC. Subsequently, a rice shoot apical tissue was exposed under a stereomicroscope, and the cell-penetrating peptide and the florigen were mixed and used for treatment of the plant tissue in the same manner as in Example 1. A mixed solution was prepared by adding the florigen at a final concentration of 50 μM and the cell-penetrating peptide R9 at a final concentration of 500 μM in PBS (pH 7.4). The mixed solution was added dropwise to the exposed shoot apical tissue to bring the mixed solution into contact with the tissue. The tissue was treated for 16 hours at room temperature.
# [5] = test system: shoot apical tissues of corn; test: Introduction of florigen into cells of shoot apical tissue of corn; assay type: cell-based; details: mixed solution with R9 as in Example 3
# Description: as §1
# (§2) In the same manner as in Example 3, the mixed solution of the cell-penetrating peptide and the florigen was added dropwise to shoot apical tissues of corn and Arabidopsis to treat the tissues.
# [6] = test system: shoot apical tissues of Arabidopsis; test: Introduction of florigen into cells of shoot apical tissue of Arabidopsis; assay type: cell-based; details: mixed solution with R9 as in Example 3
# Description: as §1, §2
# [7] = test system: flower-bud formation marker gene (OsMADS15 gene); test: Expression of flower-bud formation marker gene after direct introduction of florigen, wild-type rice, real-time quantitative RT-PCR; assay type: in vivo; details: wild-type rice shoot apical tissue; introduced with R9 as in Example 3
# Description: (§3) (1) A rice shoot apical tissue into which the florigen was introduced was isolated in the same manner as in Example 3. RNA was extracted from the rice shoot apical tissue by a conventional method, and expression of a flower-bud formation marker gene (OsMADS15 gene) was examined by real-time quantitative RT-PCR (see Non Patent Literature 2 for the method).
# [8] = test system: flower-bud formation marker gene; test: Expression of flower-bud formation marker gene after direct introduction of florigen, rice with all florigens inactivated (Hd3a-RFT1 double RNAi); assay type: in vivo; details: introduced with R9 as in Example 3
# Description: as §3
# (2) Further, rice in which all florigens were inactivated (Hd3a-RFT1 double RNAi) (Komiya et al. (2008) Development 135:767-774) was subjected to the same experiment as in (1).
# [9] = test system: APETALA1 (AP1) gene, FRUITFULL (FUL) gene, and SQUAMOSA PROMOTER BINDING-LIKES (SPL3) gene; test: Induction of expression of flowering-responsive genes in Arabidopsis after direct introduction of florigen, real-time quantitative RT-PCR; assay type: in vivo; details: shoot apical tissue after 2 weeks cultivation
# Description: The florigen was introduced directly into Arabidopsis in the same manner as in Example 6, and then the plants were cultivated for 2 weeks, followed by collection of a shoot apical tissue from each individual. RNA was extracted from the shoot apical tissue collected from each individual, and cDNA was synthesized based on a reverse transcription reaction. After that, the expression levels of APETALA1 (AP1) gene, FRUITFULL (FUL) gene, and SQUAMOSA PROMOTER BINDING-LIKES (SPL3) gene were examined by real-time quantitative RT-PCR (see Yamaguchi et al. Dev. Cell 17:268-278 (2009)).
substance,measurement,setting,value
"mHd3a-2T: partial peptide of Hd3a, amino acids at positions from 6 to 170, having C43L, C109S, and C166S substitutions",high level expression and soluble fractions,[1],capable of high level expression and providing soluble fractions
"Tat: cell-penetrating peptide YGRKKRRQRRR (SEQ ID NO: 2), arginine-rich, derived from Tat protein of HIV virus (Membrane-permeable peptide Tat)",comprehensive efficiency of introduction of GFP,[2],second highest
"mHR: mutated Hd3a incapable of being bound to a receptor (Hd3a R64D F103A R132D), used mixed with R9",effect of promoting the start of the flowering,"Arabidopsis; used instead of mHd3a-1 in mixed solution with R9, short-day condition",not observed
"R9: cell-penetrating peptide RRRRRRRRR (SEQ ID NO: 7), arginine-rich, artificially designed sequence (Membrane-permeable peptide R9)",comprehensive efficiency of introduction of GFP,[2],second highest
same,"change of introduction efficiency as molar ratio increased in the order of 0.01, 0.1, 1, and 10",[3]; mixed solution of cell-penetrating peptide and GFP,the introduction efficiency increased
same,"increase of efficiency of introduction of GFP, molar ratio 10 versus molar ratio 1",[3]; molar ratio of cell-penetrating peptide to protein 10 compared to 1,2.5 times
same,start of the flowering when the number of the leaves was 14 or less (almost all the plants),"Arabidopsis; R9 alone, short-day condition",did not start the flowering
"mHd3a-3T: partial peptide of Hd3a, amino acids at positions from 8 to 170, having K31A, Y136A, and W140A substitutions",high level expression and soluble fractions,[1],capable of high level expression and providing soluble fractions
"mHd3a-1: mutated rice Hd3a, full-length, having K31A and E57A amino acid substitutions",high level expression and soluble fractions,[1],capable of high level expression and providing soluble fractions
same,activation of transcription of the OsMADS15 gene,[4],most desirably activated
same,localization in the cell of the rice shoot apical tissue,rice shoot apical tissue; 16 hours,localized accurately in the nucleus
same,introduction into the rice shoot apical tissue,rice shoot apical tissue; 16 hours at room temperature,introduced efficiently
same,introduction into the shoot apical tissue of corn,[5],introduced efficiently
same,localization in the cell of the shoot apical tissue of corn,[5],localized accurately in the nucleus
same,introduction into the shoot apical tissue of Arabidopsis,[6],introduced efficiently
same,localization in the cell of the shoot apical tissue of Arabidopsis,[6],localized accurately in the nucleus
same,expression of the flower-bud formation marker gene (OsMADS15 gene),[7],can activate expression
same,expression of the flower-bud formation marker gene,[8],could activate the expression
same,plants able to start the flowering when the number of the leaves was 14 or less,"Arabidopsis; Arabidopsis seedlings treated 2 days with mixed solution with R9 in ten-times diluted PBS, short-day condition 30 to 40 days",about 30%
same,individuals treated in which induction of the expression was observed,[9],about 30%
same,"expression of AP1, FUL and SPL3 genes",[9]; eIF4a internal standard,activated the expression of the three genes

# Reference: patent publication US20150011393A1, “METHOD FOR INTRODUCING FLORIGEN” (priority 2012, published 2015)
